For this assay, the system named is rabbit skeletal myofibrils (fast skeletal myofibrils). Briefly: Activation of fast skeletal myofibrils (PUMA assay, AC1.4). In kind it is biochemical. The following applies: calcium at pCa25, AC1.4 = concentration at which the compound increased the enzymatic activity. The gist of the method: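 Detergent-washed rabbit psoas myofibrils (~90% fast fibers), calcium set to give 25% of maximal rate (pCa25). ATPase followed by pyruvate kinase/lactate dehydrogenase-coupled NADH oxidation, absorbance at 340 nm. PM12 buffer: 12 mM PIPES, 2 mM MgCl2, 1 mM DTT, pH 6.8.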
As to `CC[C@H](C)[C@H]1C(=O)Nc2ccccc2CN1C(=O)NCC1(CO)COC1` [Compound 261, (S)-3-((S)-sec-butyl)-N-((3-(hydroxymethyl)oxetan-3-yl)methyl)-2-oxo-1,2,3,5-tetrahydro-4H-benzo[e][1,4]diazepine-4-carboxamide], the AC1.4 turned out to be 3.34 µM. As for `CC[C@H](C)[C@H]1C(=O)Nc2ccccc2CN1C(=O)NCCCCN1CCC(C(N)=O)CC1` [Compound 262, (S)-3-((S)-sec-butyl)-N-(4-(4-carbamoylpiperidin-1-yl)butyl)-2-oxo-1,2,3,5-tetrahydro-4H-benzo[e][1,4]diazepine-4-carboxamide], the figure is 0.46 µM.

`CC[C@H](C)[C@H]1C(=O)Nc2ccccc2CN1C(=O)NCC(C)(C)C(N)=O` [Compound 263, (S)-N-(3-amino-2,2-dimethyl-3-oxopropyl)-3-((S)-sec-butyl)-2-oxo-1,2,3,5-tetrahydro-4H-benzo[e][1,4]diazepine-4-carboxamide]: the AC1.4 was 2.70 µM. With `CC[C@H](C)[C@H]1C(=O)Nc2ccccc2CN1C(=O)N1CC(N2CCCC2)C1` [Compound 264, (S)-3-((S)-sec-butyl)-4-(3-(pyrrolidin-1-yl)azetidine-1-carbonyl)-1,3,4,5-tetrahydro-2H-benzo[e][1,4]diazepin-2-one], the AC1.4 came to 0.84 µM.

Consider `CC[C@H](C)[C@H]1C(=O)Nc2ccccc2CN1C(=O)N1CC(N2CCN(C)CC2)C1` [Compound 265, (S)-3-((S)-sec-butyl)-4-(3-(4-methylpiperazin-1-yl)azetidine-1-carbonyl)-1,3,4,5-tetrahydro-2H-benzo[e][1,4]diazepin-2-one], for which the AC1.4 was found to be 0.70 µM. As for `CC[C@H](C)[C@H]1C(=O)Nc2ccccc2CN1C(=O)N1CC(N2CCOCC2)C1` [Compound 266, (S)-3-((S)-sec-butyl)-4-(3-morpholinoazetidine-1-carbonyl)-1,3,4,5-tetrahydro-2H-benzo[e][1,4]diazepin-2-one], the figure is 2.47 µM; as for `CC[C@H](C)[C@H]1C(=O)Nc2ccccc2CN1C(=O)N1CC(N2CCN(CCO)CC2)C1` [Compound 267, (S)-3-((S)-sec-butyl)-4-(3-(4-(2-hydroxyethyl)piperazin-1-yl)azetidine-1-carbonyl)-1,3,4,5-tetrahydro-2H-benzo[e][1,4]diazepin-2-one], 0.95 µM. Take `CC[C@H](C)[C@H]1C(=O)Nc2ccccc2CN1C(=O)N1CC(N2CCN(c3ccccn3)CC2)C1` [Compound 268, (S)-3-((S)-sec-butyl)-4-(3-(4-(pyridin-2-yl)piperazin-1-yl)azetidine-1-carbonyl)-1,3,4,5-tetrahydro-2H-benzo[e][1,4]diazepin-2-one]: the AC1.4 came out at 1.03 µM. On to `CC[C@H](C)[C@H]1C(=O)Nc2ccccc2CN1C(=O)N1CC(OCC(=O)N(C)C)C1` [Compound 269, 2-((1-((S)-3-((S)-sec-butyl)-2-oxo-2,3,4,5-tetrahydro-1H-benzo[e][1,4]diazepine-4-carbonyl)azetidin-3-yl)oxy)-N,N-dimethylacetamide], for which the AC1.4 came to 0.92 µM.

Turning to `CC[C@H](C)[C@H]1C(=O)Nc2ccccc2CN1C(=O)N1CC(OCC(=O)NC)C1` [Compound 270, 2-((1-((S)-3-((S)-sec-butyl)-2-oxo-2,3,4,5-tetrahydro-1H-benzo[e][1,4]diazepine-4-carbonyl)azetidin-3-yl)oxy)-N-methylacetamide], the AC1.4 was 0.94 µM. As for `CC[C@H](C)[C@H]1C(=O)Nc2ccccc2CN1C(=O)N1CC(C)(N)C1` [Compound 271, (S)-4-(3-amino-3-methylazetidine-1-carbonyl)-3-((S)-sec-butyl)-1,3,4,5-tetrahydro-2H-benzo[e][1,4]diazepin-2-one], the figure is 0.95 µM; as for `CC[C@H](C)[C@H]1C(=O)Nc2ccccc2CN1C(=O)N1C2COCC1C2` [Compound 272, (3S)-4-(3-oxa-6-azabicyclo[3.1.1]heptane-6-carbonyl)-3-((S)-sec-butyl)-1,3,4,5-tetrahydro-2H-benzo[e][1,4]diazepin-2-one], 2.62 µM. As for `CC[C@H](C)[C@H]1C(=O)Nc2ccccc2CN1C(=O)NC1(C#N)CC1` [Compound 273, (S)-3-((S)-sec-butyl)-N-(1-cyanocyclopropyl)-2-oxo-1,2,3,5-tetrahydro-4H-benzo[e][1,4]diazepine-4-carboxamide], the figure is 3.02 µM; as for `CC[C@H](C)[C@H]1C(=O)Nc2ccccc2CN1C(=O)Nc1ccc(=O)n(CC(F)F)n1` [Compound 274, (S)-3-((S)-sec-butyl)-N-(1-(2,2-difluoroethyl)-6-oxo-1,6-dihydropyridazin-3-yl)-2-oxo-1,2,3,5-tetrahydro-4H-benzo[e][1,4]diazepine-4-carboxamide], 0.06 µM. For the compound `CC[C@H](C)[C@H]1C(=O)Nc2ccccc2CN1C(=O)Nc1ccc(=O)n(CC(F)(F)F)n1` [Compound 275, (S)-3-((S)-sec-butyl)-2-oxo-N-(6-oxo-1-(2,2,2-trifluoroethyl)-1,6-dihydropyridazin-3-yl)-1,2,3,5-tetrahydro-4H-benzo[e][1,4]diazepine-4-carboxamide], the AC1.4 was 0.06 µM.

With `CC[C@H](C)[C@H]1C(=O)Nc2ccccc2CN1C(=O)NCc1ccccc1` [Compound 276, (S)-N-benzyl-3-((S)-sec-butyl)-2-oxo-1,2,3,5-tetrahydro-4H-benzo[e][1,4]diazepine-4-carboxamide], the AC1.4 came to 0.24 µM. On to `CC[C@H](C)[C@H]1C(=O)Nc2ccccc2CN1C(=O)Nc1cccc(F)c1` [Compound 277, (S)-3-((S)-sec-butyl)-N-(3-fluorophenyl)-2-oxo-1,2,3,5-tetrahydro-4H-benzo[e][1,4]diazepine-4-carboxamide], for which the AC1.4 came out at 0.08 µM. As for `CC[C@H](C)[C@H]1C(=O)Nc2ccccc2CN1C(=O)Nc1cnc2[nH]ncc2c1` [Compound 278, (S)-3-((S)-sec-butyl)-2-oxo-N-(1H-pyrazolo[3,4-b]pyridin-5-yl)-1,2,3,5-tetrahydro-4H-benzo[e][1,4]diazepine-4-carboxamide], the figure is 0.05 µM. As for `CC[C@H](C)[C@H]1C(=O)Nc2ccccc2CN1C(=O)N1CC[C@H](C(=O)OC)C1` [Compound 279, methyl (S)-1-((S)-3-((S)-sec-butyl)-2-oxo-2,3,4,5-tetrahydro-1H-benzo[e][1,4]diazepine-4-carbonyl)pyrrolidine-3-carboxylate], the figure is 1.46 µM; as for `CC[C@H](C)[C@H]1C(=O)Nc2ccccc2CN1C(=O)N1CC[C@@H](O)C1` [Compound 280, (S)-3-((S)-sec-butyl)-4-((R)-3-hydroxypyrrolidine-1-carbonyl)-1,3,4,5-tetrahydro-2H-benzo[e][1,4]diazepin-2-one], 1.06 µM; as for `CC[C@H](C)[C@H]1C(=O)Nc2ccccc2CN1C(=O)N1CCN(CCc2ccccc2)CC1` [Compound 281, (S)-3-((S)-sec-butyl)-4-(4-phenethylpiperazine-1-carbonyl)-1,3,4,5-tetrahydro-2H-benzo[e][1,4]diazepin-2-one], 0.30 µM.

Turning to `CC[C@H](C)[C@H]1C(=O)Nc2ccccc2CN1C(=O)N1CC[C@H](O)C1` [Compound 282, (S)-3-((S)-sec-butyl)-4-((S)-3-hydroxypyrrolidine-1-carbonyl)-1,3,4,5-tetrahydro-2H-benzo[e][1,4]diazepin-2-one], the AC1.4 was 0.38 µM. To `CC[C@H](C)[C@H]1C(=O)Nc2ccccc2CN1C(=O)Nc1nnc(C)s1` [Compound 283, (S)-3-((S)-sec-butyl)-N-(5-methyl-1,3,4-thiadiazol-2-yl)-2-oxo-1,2,3,5-tetrahydro-4H-benzo[e][1,4]diazepine-4-carboxamide] belongs 0.09 µM; to `CC[C@H](C)[C@H]1C(=O)Nc2ccccc2CN1C(=O)Nc1cccnc1CO` [Compound 284, (S)-3-((S)-sec-butyl)-N-(2-(hydroxymethyl)pyridin-3-yl)-2-oxo-1,2,3,5-tetrahydro-4H-benzo[e][1,4]diazepine-4-carboxamide], 0.11 µM. To `CC[C@H](C)[C@H]1C(=O)Nc2ccccc2CN1C(=O)N1CC[C@@H](CO)C1` [Compound 285, (S)-3-((S)-sec-butyl)-4-((R)-3-(hydroxymethyl)pyrrolidine-1-carbonyl)-1,3,4,5-tetrahydro-2H-benzo[e][1,4]diazepin-2-one] belongs 0.54 µM.

As for `CC[C@H](C)[C@H]1C(=O)Nc2ccccc2CN1C(=O)NCc1ccccc1C(N)=O` [Compound 286], the AC1.4 was 0.30 µM. To `CC[C@H](C)[C@H]1C(=O)Nc2ccccc2CN1C(=O)N[C@H](C(N)=O)c1ccccc1` [Compound 287, (S)-N-((S)-2-amino-2-oxo-1-phenylethyl)-3-((S)-sec-butyl)-2-oxo-1,2,3,5-tetrahydro-4H-benzo[e][1,4]diazepine-4-carboxamide] belongs 0.35 µM; to `CC[C@H](C)[C@H]1C(=O)Nc2ccccc2CN1C(=O)c1ccc(C(N)=O)cc1` [Compound 288, 4-((S)-3-((S)-sec-butyl)-2-oxo-2,3,4,5-tetrahydro-1H-benzo[e][1,4]diazepine-4-carbonyl)benzamide], 0.16 µM; to `CC[C@H](C)[C@H]1C(=O)Nc2ccccc2CN1C(=O)N1CC[C@H](C(=O)O)C1` [Compound 289, (S)-1-((S)-3-((S)-sec-butyl)-2-oxo-2,3,4,5-tetrahydro-1H-benzo[e][1,4]diazepine-4-carbonyl)pyrrolidine-3-carboxylic acid], 3.59 µM. Consider `CC[C@H](C)[C@H]1C(=O)Nc2ccccc2CN1C(=O)NC1CCN(C)CC1` [Compound 290, (S)-3-((S)-sec-butyl)-N-(1-methylpiperidin-4-yl)-2-oxo-1,2,3,5-tetrahydro-4H-benzo[e][1,4]diazepine-4-carboxamide], for which the AC1.4 came out at 0.15 µM.

The values above are taken from US12441691B2 (Cytokinetics, Inc., priority 2020, dated 2025).
